Activity calls are given as the source filed them. The rule behind the calls is not given here.
What was measured:
[1] = Toxicity in female Balb/c nude mouse xenografted with human MDA-MB-231 cells expressing luciferase assessed as abnormalities spleen at 12 to 50 mg/kg, ip administered every 3 days and measured after 30 days by H and E staining based analysis; type: organism-based; conditions: in vivo, 720 h, dose 12-50 mg/kg, time 30 day
[2] = test system: MDA-MB-231; assay: Upregulation of H3K4me2 protein expression in human MDA-MB-231 cells by Western blot analysis; type: functional, cell-based; conditions: dose 4-32 µM
[3] = biological target: T1, Lysine-specific histone demethylase 1A (Homo sapiens, UniProt O60341); assay: Binding affinity to LSD1 (unknown origin) assessed as protection of pronase-dependent degradation at 15 to 75 uM preincubated for 30 mins followed by pronase addition and measured after 30 mins by DARTS assay; conditions: dose 15-75 µM, time 60.0 min
[4] = Toxicity in female Balb/c mouse assessed as effect on lymphocyte level at 50 mg/kg, ip administered every other day for 7 times; type: organism-based; conditions: in vivo
[5] = test system: MDA-MB-231; assay: Cytotoxicity against human MDA-MB-231 cells assessed as cell viability at 0 to 100 uM incubated for 24 hrs by MTT assay; type: functional; conditions: dose 0-100 µM
[6] = test system: MDA-MB-231; assay: (§1) Antimetastatic activity against human MDA-MB-231 cells expressing luciferase xenografted in female Balb/c nude mouse assessed as reduction in number of metastatic nodules in the lung at 50 mg/kg, ip administered every 3 days and measured after 30 days by H and E staining based histopathological analysis relative to control; type: functional; parameters: scale not given: the % may be the effect or the level left; conditions: time 30 day
[7] = test system: MDA-MB-231; assay: Antimetastatic activity against human MDA-MB-231 cells expressing luciferase xenografted in female Balb/c nude mouse assessed as reduction in lung metastasis at 12 to 50 mg/kg, ip administered every 3 days and measured on day 30 by bioluminescence imaging analysis; type: functional, organism-based; conditions: dose 12-50 mg/kg, time 30.0 day
[8] = Toxicity in female Balb/c mouse assessed as histological changes in spleen at 50 mg/kg, ip administered every other day for 7 times by H and E staining based analysis; type: organism-based; conditions: in vivo
[9] = organism: Homo sapiens; assay: Binding affinity to recombinant LSD1 Ser817A mutant (unknown origin) assessed as protection of pronase-dependent degradation at 15 to 75 uM preincubated for 30 mins followed by pronase addition and measured after 30 mins by DARTS assay; conditions: dose 15-75 µM, time 60.0 min
[10] = biological target: T1, Lysine-specific histone demethylase 1A; assay: Binding affinity to LSD1 (unknown origin) assessed as dissociation constant by Microscale thermophoresis assay
[11] = organism: Homo sapiens; assay: Inhibition of recombinant LSD1 Ser817A mutant (unknown origin)
[12] = Toxicity in female Balb/c nude mouse xenografted with human MDA-MB-231 cells expressing luciferase assessed as appearance of spleen lesions at 12 to 50 mg/kg, ip administered every 3 days and measured after 30 days by H and E staining based analysis; type: organism-based; conditions: in vivo, 720 h, dose 12-50 mg/kg, time 30 day
[13] = test system: MDA-MB-231; assay: as §1, with “12” for “50”; type: functional; parameters: scale not given: the % may be the effect or the level left; conditions: time 30 day
[14] = Toxicity in female Balb/c mouse assessed as effect on LDH level at 50 mg/kg, ip administered every other day for 7 times; type: organism-based; conditions: in vivo
[15] = Toxicity in female Balb/c mouse assessed as effect on AST level at 50 mg/kg, ip administered every other day for 7 times; type: organism-based; conditions: in vivo
[16] = biological target: T1, Lysine-specific histone demethylase 1A; assay: Inhibition of LSD1 (unknown origin) at 0.32 to 6.40 uM; conditions: dose 0.32-6.4 µM, time 0-25 min
[17] = test system: MDA-MB-231; assay: Inhibition of cell migration in LSD1 knockout human MDA-MB-231 cells at 16 uM incubated for 24 hrs by phase-contrast microscopy based wound healing assay; type: functional
[18] = biological target: T1, Lysine-specific histone demethylase 1A; assay: Inhibition of LSD1 in human MDA-MB-231 cells assessed as increase in H3K4me2 accumulation by Western blotting analysis; type: cell-based; conditions: dose 0-32 µM
[19] = test system: MDA-MB-231; assay: Induction of LSD1 degradation in human MDA-MB-231 cells incubated for 12 hrs by Western blotting analysis; type: cell-based
[20] = Toxicity in female Balb/c nude mouse xenografted with human MDA-MB-231 cells expressing luciferase assessed as appearance of kidney lesions at 12 to 50 mg/kg, ip administered every 3 days and measured after 30 days by H and E staining based analysis; type: organism-based; conditions: in vivo, 720 h, dose 12-50 mg/kg, time 30 day
[21] = Toxicity in female Balb/c mouse assessed as histological changes in kidney at 50 mg/kg, ip administered every other day for 7 times by H and E staining based analysis; type: organism-based; conditions: in vivo
[22] = Toxicity in female Balb/c mouse assessed as histological changes in lung at 50 mg/kg, ip administered every other day for 7 times by H and E staining based analysis; type: organism-based; conditions: in vivo
[23] = test system: MDA-MB-231; assay: Effect on LSD1 nuclear localization in human MDA-MB-231 cells transfected with LSD1 fluorescence antibody by fluorescence based analysis; type: functional, cell-based
[24] = Acute toxicity in female ICR mouse assessed as lethal dose administered intraperitoneally for 14 days; conditions: in vivo, route ip, time 14 day
[25] = test system: MDA-MB-231; assay: Antimetastatic activity against human MDA-MB-231 cells expressing luciferase xenografted in female Balb/c nude mouse assessed as reduction in fluorescence intensity in lungs at 50 mg/kg, ip administered every 3 days and measured on day 15 by bioluminescence imaging analysis relative to control; type: functional; parameters: scale not given: the % may be the effect or the level left; conditions: time 15 day
[26] = Toxicity in female Balb/c mouse assessed as effect on creatinine level at 50 mg/kg, ip administered every other day for 7 times; type: organism-based; conditions: in vivo
[27] = Toxicity in female Balb/c mouse assessed as effect on BUN level at 50 mg/kg, ip administered every other day for 7 times; type: organism-based; conditions: in vivo
[28] = test system: MDA-MB-231; assay: Antimetastatic activity against LSD1 knockout human MDA-MB-231 cells xenografted in wild type zebrafish yolk sac assessed as inhibition of cell migration at 12.5 mg/L incubated for 3 days by fluorescence microscopic analysis; type: functional, cell-based; conditions: time 3.0 day
[29] = test system: MDA-MB-231; assay: Inhibition of MMP2 production in human MDA-MB-231 cells by Western blotting analysis; type: functional, cell-based; conditions: dose 0-32 µM
[30] = test system: MDA-MB-231; assay: Induction of LSD1 degradation in human MDA-MB-231 cells at 4 to 32 uM in presence of MG132 by Western blot analysis; type: cell-based; conditions: dose 4-32 µM
[31] = test system: MDA-MB-231; assay: Antitumor activity against human MDA-MB-231 cells expressing luciferase xenografted in female Balb/c nude mouse assessed as increase in body weight at 12 to 50 mg/kg, ip administered every 3 days and measured after 33 days; type: functional, organism-based; conditions: dose 12-50 mg/kg, time 33.0 day
[32] = Toxicity in female Balb/c nude mouse xenografted with human MDA-MB-231 cells expressing luciferase assessed as abnormalities heart at 12 to 50 mg/kg, ip administered every 3 days and measured after 30 days by H and E staining based analysis; type: organism-based; conditions: in vivo, 720 h, dose 12-50 mg/kg, time 30 day
[33] = Toxicity in female Balb/c mouse assessed as effect on granulocyte level at 50 mg/kg, ip administered every other day for 7 times; type: organism-based; conditions: in vivo
[34] = test system: MDA-MB-231; assay: Antimetastatic activity against LSD1 knockout human MDA-MB-231 cells xenografted in mouse model assessed as reduction in metastatic nodules in lung measured after 27 days by H and E staining based analysis; type: functional, cell-based; conditions: time 27.0 day
[35] = Cytotoxicity against human MCF-10A cells assessed as cell viability at 0 to 100 uM incubated for 24 hrs by MTT assay; type: toxicity, cell-based; conditions: dose 0-100 µM, read-out: Activity

With `C[C@@H]1O[C@H](OC[C@H]2O[C@@H](OCCc3ccc(O)c(O)c3)[C@H](O)[C@@H](OC(=O)/C=C/c3ccc(O)c(O)c3)[C@@H]2O)[C@H](O)[C@H](O)[C@H]1O` the Activity [1] was “Non-toxic”, the Activity [2] was “Dose-dependent-effect” and the Activity [3] was “Active”. For the same compound, the Activity [4] was “Non-toxic”, the Activity [5] was greater than 90% and the Activity [6] was 52.5%. For the same compound, the Activity [7] was “Active”, the Activity [8] was “Non-toxic” and the Activity [9] was “inactive”. For the same compound, the Kd [10] was 5.19 µM, the inhibition [11] was “inactive” and the Activity [12] was “Non-toxic”. The Activity [13] was 7.1%, the Activity [14] was “Non-toxic” and the Activity [15] was “Non-toxic”. The inhibition [16] was “Time-dependent-effect”, the inhibition [17] was “Active; No Significant Difference With Lsd1 Knockout Control Group” and the inhibition [18] was “Dose-dependent-effect”. For the same compound, the Activity [19] was “Active”, the Activity [20] was “Non-toxic” and the Activity [21] was “Non-toxic”. For the same compound, the Activity [22] was “Non-toxic”, the Activity [23] was “inactive” and the LD50 at 336 h [24] was greater than 600 mg/kg. The Activity [25] was 73.3%, the Activity [26] was “Non-toxic” and the Activity [27] was “Non-toxic”. For the same compound, the Activity [28] was “Active; No Significant Difference With Lsd1 Knockout Control Group”, the inhibition [29] was “Dose-dependent-effect” and the Activity [30] was “inactive”. For the same compound, the Activity [31] was “Active; Slight Increase In Body Weight Observed”, the Activity [32] was “Non-toxic” and the Activity [33] was “Non-toxic”. The Activity [34] was “Active; No Significant Difference Compared To Lsd1 Knockout Control Group” and the viability at 24 h, up to 100 µM [35] was greater than 90%.
